# Measured values from patent publication EP1289507B1, “USE OF AN ALDOSTERONE ANTAGONIST FOR THE TREATMENT OR PROPHYLAXIS OF ALDOSTERONE-MEDIATED PATHOGENIC EFFECTS” (priority 2000, dated 2001).
# Like-named read-outs stand apart in the source and are kept apart here.
# Assays:
# [1] = Single dose tolerability and pharmacokinetic trials, Japan and Ex-Japan; format: in vivo, Japanese (Japan) and European (Ex-Japan) subjects; settings: for CL/F: single dose, least squares mean
# Procedure: A total of 76 European subjects and 38 Japanese subjects participated in the single and multiple dose tolerability and food effect trials. Three of the studies were Ex-Japan studies and included doses ranging from 10 mg to 1000 mg. The other two studies were conducted in Japan and included doses ranging from 50 mg to 600 mg.
# The Ex-Japan trials included (i) a single dose tolerability trial, and (ii) a multiple dose tolerability trial, and (iii) a food effect study.
# Both single dose and multiple dose tolerability trials were conducted in Japan utilizing healthy male Japanese subjects. […] Six subjects who received the 100 mg dose also participated in the food effect treatment arm of the single dose tolerability trial.
# Combining single dose fasting pharmacokinetic data from all five studies, an analysis of variance with factors for country (Japan, Ex-Japan), study nested within country, and dose were performed on the dose-normalized Cmax and AUC values to assess the effect of country (population). Dose normalization was done to the lowest dose (10 mg for single dose, 100 mg for multiple dose). In the absence of intravenous data, the distribution volume (V/F) and clearance (CL/F) parameters are represented as the apparent values and are normalized to 70 kg of body weight. There were no statistically significant differences between the Japan and Ex-Japan trials in any of the pharmacokinetic parameters analyzed.
# No statistically significant differences were noted between the Japan and ex-Japan population for any of the derived parameters evaluated.
# Each panel consisted of six subjects who were given eplerenone and two subjects who were given placebo.
# [2] = system: Stroke Prone Spontaneously Hypertensive Rat (SHR-SP); assay: Blood pressure in stroke prone spontaneously hypertensive rat (SHR-SP), tail cuff plethysmography; format: in vivo
# Procedure: Methods: SHR-SP were bred in the animal facilities of New York Medical College and maintained on normal rat chow and non-saline drinking water (i.e., tap water). […] Indirect measurements of systolic blood pressure were assessed by tail cuff plethysmography.
# [3] = system: captopril-treated, saline-drinking SHRSP; assay: Protocol 2: Angiotensin II-induced renal damage in captopril-treated saline-drinking SHRSP; format: in vivo, male SHRSP/A3N
# Procedure: Animals. Studies were conducted in accordance with institutional guidelines using male SHRSP/A3N (generations F-75 to F-78), n = 37, from our local colony. These animals were bred from NIH stock, derived from the SHRSP/A3N substrain described originally by Okamoto and coworkers (Okamoto K et al. Circ. Res. 34 and 35 (suppl I):I-143-I-153.). All animals were housed in a room maintained on a 12:12-h light:dark-cycle and an ambient temperature of 22 ± 1°C in the Animal Care Facility at New York Medical College. Rats were weaned at 4 weeks of age and allowed free access to Purina Lab Chow 5001 (Ralston Purina, St. Louis, MO) and tap water until the initiation of experimental protocols.
# SHRSP were placed on Stroke-Prone Rodent Diet (#39-288, Zeigler Bros Inc., Gardners, PA) and 1% NaCl drinking solution ad libitum starting at 8.3 weeks of age. […] Animals were handled and weighed daily. Urine samples were collected for the assessment of proteinuria. Systolic blood pressure and heart rate were measured each week. After 2 weeks of treatment, animals were decapitated, trunk blood was collected into chilled EDTA tubes, and the kidneys were removed, blotted dry, and immediately weighed. Coronal sections of kidney were fixed and later processed for light microscopic evaluation.
# Assays and Analyses. Systolic blood pressure and heart rate of awake animals were measured by tail-cuff plethysmography using a Natsume KN-210 manometer and tachometer (Peninsula Laboratories Inc., Belmont, CA). Rats were warmed at 37°C for 10 min and allowed to rest quietly in a Lucite chamber before measurement of blood pressure. Measurements of urine volume were made gravimetrically. Urinary protein concentration was determined by the sulfosalicylic acid turbidity method. Plasma aldosterone was measured by radioimmunoassay using ^125I-aldosterone as a tracer (Coat-a Count Aldosterone, Diagnostic Products Co., Los Angeles, CA).
# Histology. Kidneys were preserved in 10% phosphate-buffered formalin. Coronal sections (2-3 µm) were stained with hematoxylin and eosin and examined by light microscopy in a blinded fashion as previously described (Stier CT et al. J Pharmacol Exp Ther (1992) 260:1410-1415). Glomerular damage was categorized as ischemic or thrombotic. Ischemic lesions were defined as retraction of glomerular capillary tufts with or without appreciable mesangiolysis. Glomerular thrombotic lesions were defined as any one of a combination of the following: segmental to global fibrinoid necrosis, focal thrombosis of glomerular capillaries, swelling and proliferation of intracapillary (endothelial and mesangial) and/or extracapillary cells (crescents), and expansion of reticulated mesangial matrix with or without significant hypercellularity. […] Vascular thrombotic lesions were defined as any one or a combination of the following: mural fibrinoid necrosis, extravasation and fragmentation of red blood cells, and luminal and/or mural thrombosis. Proliferative arteriopathy was characterized by proliferation of markedly swollen myointimal cells with swollen round to ovoid vesicular nuclei surrounded by mucinous extracellular matrix ("onion skinning") often resulting in nodular thickening. Vascular damage was expressed as the number of arteries and arterioles with lesions per 100 glomeruli. The presence of casts and tubular (ischemic) retraction and simplification was assessed semiquantitatively.
# Statistical Analysis. Significant effects with respect to treatment and time were determined by two-way analysis of variance. Data with only one grouping variable were analyzed statistically by Student's unpaired t tests. When more than two groups were compared, one-way analysis of variance was performed followed by the post-hoc Newman-Keul's multiple comparison test. Data were analyzed using version 2.01 of the GraphPad Prism statistical software package (GraphPad Software Inc., San Diego, CA). P < .05 was considered statistically significant. Data are reported as mean ± SEM.
# [4] = system: stroke-prone spontaneously hypertensive rats; settings: cited from earlier work
# [5] = Pharmacokinetics and absorption after IV and oral [14C]eplerenone in the rat; format: in vivo; settings: for half-life / clearance: iv, IV 15 mg/kg; for half-life / clearance / Cmax / bioavailability: 15 mg/kg; for Cmax / bioavailability: po; for Cmax: Cmax of total eplerenone
# Procedure: Plasma, urine and fecal samples were analyzed for total radioactivity.
# [6] = captopril plus vehicle, or captopril plus angiotensin II plus eplerenone
smiles,measurement,setting,value
"COC(=O)[C@@H]1CC2=CC(=O)CC[C@]2(C)[C@@]23O[C@@H]2C[C@@]2(C)[C@@H](CC[C@@]24CCC(=O)O4)[C@H]13 [Eplerenone, Pregn-4-ene-7,21-dicarboxylic acid, 9,11-epoxy-17-hydroxy-3-oxo-, γ-lactone, methyl ester, (7α, 11α, 17β)-]",adverse events,"[1]; healthy Japanese male subjects, single doses 50-600 mg",no adverse events were reported
same,CL/F,"[1]; human, blood, po, Ex-Japan, read-out: CL/F (converted)",228 mL/min
same,CL/F,"[1]; human, blood, po, Japan, read-out: CL/F (converted)",230 mL/min
same,CL/F,[1]; Ex-Japan,14.44 L/hr/70 kg
same,CL/F,[1]; Japan,13.52 L/hr/70 kg
same,systolic blood pressure,"[2]; Week 13 (initiation), 100 mg/kg/day p.o. BID",201.4 ± 1.6 mmHg
same,systolic blood pressure,"[2]; Week 14, 100 mg/kg/day p.o. BID",202.8 ± 1.8 mmHg
same,systolic blood pressure,"[2]; Week 15, 100 mg/kg/day p.o. BID",208.0 ± 4.2 mmHg
same,systolic blood pressure,"[2]; Week 16, 100 mg/kg/day p.o. BID",203.1 ± 6.2 mmHg
same,"Glomerular damage, Ischemic","[3]; Captopril 50 mg/kg/d + vehicle, or CAP, Angiotensin II 25 ng/min + Eplerenone 100 mg/kg/d, 2 weeks",3.0 ± 1.0 lesions/100 glomeruli
same,"Glomerular damage, Thrombotic","[3]; as Table A-8B, 2 weeks",1.0 ± 0.3 lesions/100 glomeruli
same,"Glomerular damage, Total","[3]; as Table A-8B, 2 weeks",3.0 ± 1.0 lesions/100 glomeruli
same,"Renal arteriopathy, Proliferative","[3]; as Table A-8B, 2 weeks",0.1 ± 0.1 lesions/100 glomeruli
same,"Renal arteriopathy, Thrombotic","[3]; as Table A-8B, 2 weeks",4.0 ± 1.0 lesions/100 glomeruli
same,"Renal arteriopathy, Total","[3]; as Table A-8B, 2 weeks",4.0 ± 1.0 lesions/100 glomeruli
same,renal damage,[3]; captopril plus angiotensin II plus eplerenone 100 mg/kg/d,3 ± 1%
same,Preterminal systolic blood pressure,[3]; [6],231 ± 5 mm Hg
same,tubules with ischemic retraction and simplification,[3]; [6],2.5 ± 0.9%
same,proteinuria (urinary protein excretion),"[3]; end of study (2 weeks), captopril 50 mg/kg/d plus vehicle, or captopril plus angiotensin II 25 ng/min plus eplerenone 100 mg/kg/d",28 ± 5 mg/day
same,"proteinuria, renal lesions and hypertension",[4],prevented proteinuria and renal lesions but not severe hypertension
same,systemic availability of total radioactivity,"[5]; oral 15 mg/kg, female rat",66.4%
same,mean Cmax of total radioactivity,"[5]; oral 15 mg/kg, female rats",7.67 µg equivalents/mL
same,systemic availability of total radioactivity,"[5]; oral 15 mg/kg, male rat",59.6%
same,mean Cmax of total radioactivity,"[5]; oral 15 mg/kg, male rats",7.64 µg equivalents/mL
same,half-life,"[5]; rat, plasma, elimination half-life of eplerenone, female rat",1.14 h
same,half-life,"[5]; rat, plasma, elimination half-life of total eplerenone, female rat, closed plus open form",1.14 h
same,half-life,"[5]; rat, plasma, elimination half-life of total eplerenone, male rat, lactone ring closed form plus open form",1.01 h
same,clearance,"[5]; rat, plasma, plasma clearance (CL) of eplerenone, female rat",20 mL/min/kg
same,clearance,"[5]; rat, plasma, plasma clearance (CL) of total eplerenone, female rat",11.6 mL/min/kg
same,clearance,"[5]; rat, plasma, plasma clearance (CL) of total eplerenone, male rat",16.4 mL/min/kg
same,Cmax,"[5]; rat, plasma, oral 15 mg/kg, female rat",6350 ng/mL
same,Cmax,"[5]; rat, plasma, oral 15 mg/kg, male rat",3200 ng/mL
same,bioavailability,"[5]; rat, plasma, systemic availability of eplerenone, oral 15 mg/kg, female rat",66.1%
same,bioavailability,"[5]; rat, plasma, systemic availability of eplerenone, oral 15 mg/kg, male rat",25.6%
same,bioavailability,"[5]; rat, plasma, systemic availability of total eplerenone, oral 15 mg/kg, female rat",74.2%
same,bioavailability,"[5]; rat, plasma, systemic availability of total eplerenone, oral 15 mg/kg, male rat",29.4%
same,Tmax,"[5]; rat, plasma, oral 15 mg/kg, male rats",0.5 h
